Measurements reported in US20100113334A1, “METHODS FOR REDUCING OR PREVENTING TRANSMISSION OF NOSOCOMIAL PATHOGENS IN A HEALTH CARE FACILITY” (priority 2003, published 2010).

Legend:
[1] = test system: indigenous stool microflora; assay: DGGE of PCR-amplified bacterial ribosomal RNA genes from stool (Example 3); assay type: in vivo, mice; conditions: subcutaneous clindamycin
Candida glabrata A239 = assay: Minimum-inhibitory concentration for Candida glabrata A239; assay type: cell-based; conditions: clinical isolate A239
Protocol: Pathogens Studied: E. faecium C68, a previously described VanB-type clinical VRE isolate, was used for the following murine VRE experiments (Donskey et al., J. Microbial. Meth. 1807: 1-8, 2003). […] Klebsiella pneumoniae P62 is a clinical isolate that produces an SHV type extended-spectrum β-lactamase (ESBL). Candida glabrata A239 is a clinical isolate with a fluconazole minimum-inhibitory concentration of 2 μg/mL.

Total Enterococci = assay: VRE suppression in a mouse model (Example 1), total enterococci in faeces; assay type: in vivo, mice
Description: (§1) Mice were colonized with a clinical isolate VanA strain of E. faecium (VRE) isolated from a septicemic patient. A single inoculation of 5×10^8 cfu VRE by oral gavage (Day 0) was followed by treatment with vancomycin in the drinking water to maintain colonization. On day 22, each group received the same vancomycin-containing drinking water. […] The control group consisted of five mice, while the ramoplanin group consisted of four mice.

[2] = test system: clinical isolate VanA strain of E. faecium (VRE); assay: VRE suppression in a mouse model (Example 1); assay type: in vivo, mice
Description: as §1

[3] = Day 22, prior to ramoplanin therapy
[4] = Day 29, completion of ramoplanin therapy
[5] = Day 36, 7 days after completion of ramoplanin therapy

Structure (SMILES): CCC[C@@H]1C[C@@H](C(=O)N[C@@H]([C@H]2O[C@H](SC)[C@H](O)[C@@H](O)[C@H]2O)[C@H](C)Cl)N(C)C1 [clindamycin]
- stool DGGE patterns, mean similarity indices in comparison to pre-treatment patterns [1]: 17%

Structure (SMILES): OC(Cn1cncn1)(Cn1cncn1)c1ccc(F)cc1F [fluconazole]
- minimum-inhibitory concentration (Candida glabrata A239): 2 µg/mL

Structure (SMILES): CN[C@H](CC(C)C)C(=O)N[C@H]1C(=O)N[C@@H](CC(N)=O)C(=O)N[C@H]2C(=O)N[C@H]3C(=O)N[C@H](C(=O)N[C@H](C(=O)O)c4cc(O)cc(O)c4-c4cc3ccc4O)[C@H](O)c3ccc(c(Cl)c3)Oc3cc2cc(c3O[C@@H]2O[C@H](CO)[C@@H](O)[C@H](O)[C@H]2O[C@H]2C[C@](C)(N)[C@H](O)[C@H](C)O2)Oc2ccc(cc2Cl)[C@H]1O [vancomycin]
- Enterococci: Total Enterococci (Total Enterococci; [3]): 9.6 log 10 cfu/g faeces
- Enterococci: Total Enterococci (Total Enterococci; [4]): 9.3 log 10 cfu/g faeces
- Enterococci: Total Enterococci (Total Enterococci; [5]): 9.6 log 10 cfu/g faeces
- Enterococci: VRE [2, 3]: 9.7 log 10 cfu/g faeces
- Enterococci: VRE [2, 4]: 9.4 log 10 cfu/g faeces
- % Mice with VRE ([2]; Day 29, completion of ramoplanin therapy (15 mg/kg/day in drinking water, with 25 mg/kg/day vancomycin)): 100%
- % Mice with VRE [2, 5]: 100%
- Enterococci: VRE [2, 5]: 9.3 log 10 cfu/g faeces
